These results are taken from patent US12679855B2, “Inhibitors of the enzyme enolase for precision oncology” (Board of Regents, The University of Texas System, priority 2019, dated 2026).

The structures appear in SMILES notation. “And” between values parts separate entries of the source, which are not always exact repeats. Equal entries are not always repeated. Where two headings read alike, the source gives them in different places.

The subject of data set [1] is glioma cell lines with different ENO1-deletion status. Description: Enolase inhibitor sensitivity across glioma cell lines. The class given is cell-based. On the procedure:
(§1) Enolase inhibitor sensitivity experiments were performed, using DMEM containing 10% FBS cell culture media. IC50 (expressed in nM) were calculated based on terminal cell density measured by crystal violet after 7 days of growth. […] Left table: POMHEX. Middle table: HEX. Right table: Ratio of sensitivity to POMHEX versus HEX for each cell line.
(§2) (FIG. 19A) ENO1-deleted (D423, red), ENO1-isogenically rescued (D423 ENO1, blue), and ENO1-WT (LN319, grey) cells were treated POMHEX in RPMI media under the same experimental conditions used for NCI-60 screening. […] IC50 (expressed in nM) were calculated based on terminal cell density measured by crystal violet.

The nature of data set [2]: Plasma and organ levels after injection of POMHEX in mice. The class given is in vivo, mouse. On the procedure:
(§3) FIGS. 3A-3D show the ex-vivo half-life of POMHEX in biological fluids may limit its clinical utility. (FIG. 3A) Ex-vivo half-life of POMHEX in biological fluids. POMHEX has a half-life of ~30 seconds in mouse plasma. The degradation may be prevented by heat inactivation or de-proteinatization with acetonitrile. […] (FIG. 3B) Plasma concentration of HEX and HemiPOMHEX following a single intravenous injection of POMHEX, as a function of time. Mice were injected IV with 10 mg/kg POMHEX and sacrificed at the indicated time points. Each data point represents a single animal. Note, POMHEX itself was below the detection limit (100 nM) even at the earliest time point. It is believed that this may not be reflective of the physiological state as separation of plasma from hematocrit is required for the measurements, which adds approximately 6 minutes of processing time during which POMHEX may be degraded to HemiPOMHEX. (FIG. 3C) The results of the same experiment but performed with an intraperitoneal injection of POMHEX, at a dose of 40 mg/kg. (FIG. 3D) Quantification of POMHEX and its metabolites in mouse organs 24 hrs. after a single intravenous injection of 10 mg/kg POMHEX.
FIGS. 16A-16C show the ex-vivo half-life of POMHEX in biological fluids limits its clinical utility. […] Lower levels of carboxylesterase in human blood results in a longer half-life of POMHEX. (FIG. 16B) Dramatically higher drug exposure in non-human primates as compared to mice following IV injections of POMHEX. Mice (n=3; pooled) and monkeys (n=3; pooled) were injected IV with POMHEX at 10 mg/kg and 2.5 mg/kg, respectively. […] POMHEX was undetectable (<50 nM) even at the earliest time point, in both monkey and mouse experiments; at 98 nM, POMHEX was detectable 1-minute post-injection, but at no time thereafter. […] HEX and HemiPOMHEX were not measured at concentrations higher than 10 mg/kg due to the hazards associated with the derivatization agent, trimethylsilyl-diazomethane in hexane (TMS-DAM). (FIG. 16C) Schematic of POMHEX in circulation when administered IP or IV in mice. […]

Data set [3] in a line: Human plasma stability assay (31P NMR). The class given is in vitro ADME. On the procedure:
VCY17 (left) and POMHEX (right) were prepared at 1.5 mM and added to human plasma in an NMR tube with 10% D2O for signal lock. […] As expected, emergence of the second peak after 1 h is due to hydrolysis of the acetyl-protected hydroxamate; the nitroimidazole moiety remains attached (mono-ester phosphonates always show ^31P-chemical shifts <20 ppm); intact phosphoramidate mixed ester was verified by ^31P-^1H HSQC showing resonance with protons at ~5 ppm (—CH2—O—P) and 4 ppm (—CH2—NH—P). Note that VCY17 and de-acetylated VCY17 can come out as doublets: this is because two chiral centers (Phosphorus and C1) yield cis/trans diasteromers.
VCY13 (FIG. 20A) and VCY31 (FIG. 20B) are thioesterase-labile phosphonoamidates. ENO1-deleted (D423, red), ENO1-isogenically rescued (D423 ENO1, blue), and ENO1-WT (LN319, grey) cells were treated with either VCY13 or VCY31 for 5 days. […] (FIG. 20B) VCY31 is a structurally similar pro-drug that uses 2-picolylamine, rather than benzylamine, as a second pro-drug leave group. […] 4 mM VCY31 was dissolved in 80% human plasma, 20% D2O and monitored by ^31P NMR (121 MHz) for 15 hours. Intact VCY31 has a ^31P NMR shift of 33 ppm. Hydrolysis of the thioester begins to occur after 2 hours, as indicated by the emergence of a peak at ~16 ppm.
Human plasma stability assay. POMHEX and VCY17 (1.5 mM) were added to human plasma (Sigma #P9523) in an NMR tube with 10% D2O for signal lock. ^31P NMR measurements (31P CPD, 1000 transients) were conducted every 30 minutes on the first day and every 24 hours, for 4 days afterwards.

A short description of data set [4]: Ex-vivo stability in human blood. The class given is in vitro ADME. On the procedure:
as §3, with “(FIG. 3C) The results of the same experiment but performed with an intraperitoneal injection of POMHEX, at a dose of 40 mg/kg.” left out
FIGS. 16A-16C show the ex-vivo half-life of POMHEX in biological fluids limits its clinical utility. […] HEX and HemiPOMHEX were not measured at concentrations higher than 10 mg/kg due to the hazards associated with the derivatization agent, trimethylsilyl-diazomethane in hexane (TMS-DAM). […]

The test system of data set [5] is D502 glioma cell line (ENO1-heterozygously deleted). Description: Enolase inhibitor sensitivity (crystal violet), ENO1-heterozygously deleted D502 cells. The class given is cell-based. As to conditions: DMEM 10% FBS, terminal cell density by crystal violet after 7 days. How it is done: as §1, §2
(§4) Cell proliferation assay.

Data set [6] deals with D423 (ENO1-deleted) glioma cells. In words: Cell proliferation assay (crystal violet) in ENO1-deleted glioma cells. Particulars: 4 days. The class given is cell-based.
Data set [7] is described as follows: Plasma levels after IV injection of POMHEX in monkeys. The class given is in vivo, monkey. How it is done:
FIGS. 16A-16C show the ex-vivo half-life of POMHEX in biological fluids limits its clinical utility. […] Lower levels of carboxylesterase in human blood results in a longer half-life of POMHEX. (FIG. 16B) Dramatically higher drug exposure in non-human primates as compared to mice following IV injections of POMHEX. Mice (n=3; pooled) and monkeys (n=3; pooled) were injected IV with POMHEX at 10 mg/kg and 2.5 mg/kg, respectively. […] POMHEX was undetectable (<50 nM) even at the earliest time point, in both monkey and mouse experiments; at 98 nM, POMHEX was detectable 1-minute post-injection, but at no time thereafter. […] HEX and HemiPOMHEX were not measured at concentrations higher than 10 mg/kg due to the hazards associated with the derivatization agent, trimethylsilyl-diazomethane in hexane (TMS-DAM). (FIG. 16C) Schematic of POMHEX in circulation when administered IP or IV in mice. Due to high levels of plasma carboxylesterase, a gradient decrease in POMHEX away from the site of injection is accompanied by a concurrent increase in HemiPOMHEX.

Data set [8] concerns U343 glioma cell line (ENO1-heterozygously deleted). Description: Enolase inhibitor sensitivity (crystal violet), ENO1-heterozygously deleted U343 cells. The class given is cell-based. As to conditions: DMEM 10% FBS, terminal cell density by crystal violet after 7 days. How it is done: as §1, §2, §4

The IC50 is the point on the concentration scale where inhibition reaches its midpoint.

Take `CC(C)(C)C(=O)OCOP(=O)(OCOC(=O)C(C)(C)C)C1CCCN(O)C1=O` (stereo not shown) [POMHEX]: in data set [1], the “specificity towards ENO1-heterozygous deleted cells compared to normal tissue” value is listed as 10 fold. In data set [1] (D423, D423 ENO1, LN319 cells, NCI-60 screening conditions), the “sensitivity greater in RPMI as compared to DMEM media” value was ~ 3 fold. Further, the “potency of POMHEX greater than HEX, on average” value in data set [1] (average across glioma cell lines) is recorded as ~ 75 fold. Besides, the “level in mouse organs” value in data set [2] (24 hrs. after a single intravenous injection of 10 mg/kg POMHEX) is “below the quantification limit (BQL)”. In data set [2] (IV 10 mg/kg, even at the earliest time point, 10 mg/kg), the “plasma concentration of POMHEX, mice” value was < 100 nM and < 50 nM. The “time of hydrolysis to HemiPOMHEX in human plasma” value in data set [3] (1.5 mM, human plasma with 10% D2O, 31P NMR) is listed as “less than 1 h”. For the same molecule, the “longevity of intact POMHEX” value in data set [3] (FIG. 15) amounted to 2 h. For the same molecule, the “stability in human blood relative to mouse plasma” value in data set [4] is recorded as “at least 20 times”. Also, the IC50 in data set [5] was 82 nM; in data set [6] (1% O2, read-out: IC50 for D423 ENO1-homozygously deleted glioma cells under 1% O2 hypoxia), ~90 nM and 84 nM; in data set [6] (normoxia (21% O2), read-out: IC50 for D423 ENO1-homozygously deleted glioma cells under normoxia) it was ~40 nM and 31 nM; in data set [8] it was 559 nM. For the same molecule, the “potency decrease under 1% O2” value in data set [6] (1% O2 versus 21% O2) is recorded as ~ 2.5 fold. Further, in data set [7] (1-minute post-injection, species not stated), the “plasma concentration of POMHEX 1-minute post-injection” value turned out to be 98 nM. Further, the “potentially higher toxicity in monkey” value in data set [7] (IV 2.5 mg/kg) is “did not materialize”. The “plasma concentration of POMHEX, monkeys” value in data set [7] (IV 2.5 mg/kg, even at the earliest time point) is recorded as less than 50 nM.
